Data on five molecules can be found in ChEMBL document CHEMBL4219030, “Progress in the discovery of small molecule modulators of the Cys-loop superfamily receptors” (Bioorg Med Chem Lett, 2017).

The target in experiment [1] is GABA A receptor alpha-3/beta-2/gamma-2 (Homo sapiens, UniProt P18507+P34903+P47870). Nature of the experiment: Positive allosteric modulation of recombinant wild type GABAA receptor alpha3beta2gamma2S (unknown origin) expressed in HEK293 cells assessed as potentiation of GABA induced chloride current response treated every 30 secs measured for 2 to 3 secs by patch clamp method. The class given is cell-based. Background: The patch-clamp technique gives a direct electrical read-out from membranes.

Experiment [2] concerns HEK293. Nature of the experiment: Positive allosteric modulation of recombinant wild type GABAA receptor alpha4beta2gamma2S (unknown origin) expressed in HEK293 cells assessed as potentiation of GABA induced chloride current response relative to GABA. It is filed as cell-based. The note with it: Homo sapiens.
For experiment [3], the target named is T1, GABA A receptor alpha-2/beta-2/gamma-2 (Homo sapiens, UniProt P18507+P47869+P47870). Kind of experiment: Positive allosteric modulation of recombinant wild type GABAA receptor alpha2beta2gamma2S (unknown origin) expressed in HEK293 cells assessed as potentiation of GABA induced chloride current response treated every 30 secs measured for 2 to 3 secs by patch clamp method. It is filed as cell-based.
T1 sequence (P47870 whole entry): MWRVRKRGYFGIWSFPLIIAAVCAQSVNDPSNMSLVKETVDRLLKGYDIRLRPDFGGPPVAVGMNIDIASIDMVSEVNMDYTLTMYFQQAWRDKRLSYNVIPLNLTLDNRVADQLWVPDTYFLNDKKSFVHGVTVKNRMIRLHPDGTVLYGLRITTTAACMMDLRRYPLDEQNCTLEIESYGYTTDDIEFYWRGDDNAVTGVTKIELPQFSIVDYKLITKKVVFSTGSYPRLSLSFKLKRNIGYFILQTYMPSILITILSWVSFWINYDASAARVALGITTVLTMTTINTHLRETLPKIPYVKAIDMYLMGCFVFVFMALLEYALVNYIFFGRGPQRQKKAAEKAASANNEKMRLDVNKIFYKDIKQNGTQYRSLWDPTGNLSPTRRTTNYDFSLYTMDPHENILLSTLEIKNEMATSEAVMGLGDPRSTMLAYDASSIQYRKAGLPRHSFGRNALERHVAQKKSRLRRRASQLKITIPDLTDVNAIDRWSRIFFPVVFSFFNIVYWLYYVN
T1 sequence (P18507 whole entry): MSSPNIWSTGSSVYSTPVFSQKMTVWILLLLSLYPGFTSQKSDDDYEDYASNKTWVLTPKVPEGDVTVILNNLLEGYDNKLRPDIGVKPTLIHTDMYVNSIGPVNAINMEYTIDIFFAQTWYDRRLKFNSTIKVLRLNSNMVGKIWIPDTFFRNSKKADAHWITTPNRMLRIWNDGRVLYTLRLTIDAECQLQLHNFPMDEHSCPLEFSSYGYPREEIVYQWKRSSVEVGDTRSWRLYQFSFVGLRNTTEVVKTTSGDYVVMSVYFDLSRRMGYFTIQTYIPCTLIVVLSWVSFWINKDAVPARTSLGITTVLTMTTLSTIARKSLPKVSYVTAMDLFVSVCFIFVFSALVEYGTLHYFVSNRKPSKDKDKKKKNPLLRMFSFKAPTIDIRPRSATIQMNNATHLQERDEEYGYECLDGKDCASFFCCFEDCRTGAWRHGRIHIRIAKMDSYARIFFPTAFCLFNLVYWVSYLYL
T1 sequence (P47869 whole entry): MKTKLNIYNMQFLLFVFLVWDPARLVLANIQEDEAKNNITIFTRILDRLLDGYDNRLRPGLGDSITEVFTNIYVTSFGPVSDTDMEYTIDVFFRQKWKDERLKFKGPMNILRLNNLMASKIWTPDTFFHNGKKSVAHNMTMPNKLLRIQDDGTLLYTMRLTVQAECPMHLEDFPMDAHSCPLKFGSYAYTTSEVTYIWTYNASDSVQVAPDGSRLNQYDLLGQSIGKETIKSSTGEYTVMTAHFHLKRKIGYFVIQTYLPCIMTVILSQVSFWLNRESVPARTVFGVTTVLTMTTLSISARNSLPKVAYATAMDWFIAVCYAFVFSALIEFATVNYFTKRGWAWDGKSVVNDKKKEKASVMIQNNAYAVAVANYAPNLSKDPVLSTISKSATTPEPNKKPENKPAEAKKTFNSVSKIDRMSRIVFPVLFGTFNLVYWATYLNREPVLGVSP

Experiment [4] is described as follows: Positive allosteric modulation of recombinant wild type GABAA receptor alpha4beta2gamma2S (unknown origin) expressed in HEK293 cells assessed as potentiation of GABA induced chloride current response treated every 30 secs measured for 2 to 3 secs by patch clamp method. It is filed as cell-based. The note with it: Homo sapiens.
Experiment [5] has as its target GABA A receptor alpha-3/beta-2/gamma-2 (Homo sapiens) (UniProt P47870+P18507+P34903). Kind of experiment: Positive allosteric modulation of recombinant wild type GABAA receptor alpha3beta2gamma2S (unknown origin) expressed in HEK293 cells assessed as potentiation of GABA induced chloride current response relative to 30 uM GABA. It is filed as cell-based.
Experiment [6] has as its target GABA A receptor alpha-2/beta-2/gamma-2 (Homo sapiens) (UniProt P47870+P18507+P47869). Kind of experiment: Positive allosteric modulation of recombinant wild type GABAA receptor alpha2beta2gamma2S (unknown origin) expressed in HEK293 cells assessed as potentiation of GABA induced chloride current response relative to GABA. The class given is cell-based.
Experiment [7] deals with GABA-A receptor; alpha-1/beta-2/gamma-2 (Homo sapiens, UniProt P14867+P18507+P47870). Kind of experiment: Agonist activity at recombinant human GABAA receptor alpha1beta2gamma2L expressed in Xenopus laevis oocytes incubated for 30 secs by electrophysiological method. The class given is cell-based.
Sequence of GABA-A receptor; alpha-1/beta-2/gamma-2 (P14867 whole entry): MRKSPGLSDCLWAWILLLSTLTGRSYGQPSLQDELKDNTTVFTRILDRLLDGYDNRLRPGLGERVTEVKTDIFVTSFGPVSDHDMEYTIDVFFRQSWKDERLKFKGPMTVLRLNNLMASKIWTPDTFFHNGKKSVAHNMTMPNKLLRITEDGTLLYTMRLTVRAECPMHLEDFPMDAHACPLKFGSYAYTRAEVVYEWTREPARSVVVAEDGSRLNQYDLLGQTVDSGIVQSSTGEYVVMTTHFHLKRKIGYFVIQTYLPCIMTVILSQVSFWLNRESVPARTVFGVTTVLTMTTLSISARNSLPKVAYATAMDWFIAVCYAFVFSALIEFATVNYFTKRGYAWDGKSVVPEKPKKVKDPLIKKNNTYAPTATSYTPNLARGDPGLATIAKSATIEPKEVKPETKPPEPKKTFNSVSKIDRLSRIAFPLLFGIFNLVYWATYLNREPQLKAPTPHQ
Sequence of GABA-A receptor; alpha-1/beta-2/gamma-2 (P47870 whole entry): as the sequence (P47870 whole entry) above
Sequence of GABA-A receptor; alpha-1/beta-2/gamma-2 (P18507 whole entry): as the sequence (P18507 whole entry) above
The target of experiment [8] is T1, GABA A receptor alpha-2/beta-2/gamma-2. Nature of the experiment: Agonist activity at recombinant human GABAA receptor alpha2beta2gamma2L expressed in Xenopus laevis oocytes incubated for 30 secs by electrophysiological method. It is filed as cell-based.
The target of experiment [9] is GABA A receptor alpha-1/beta-1/gamma-2 (Homo sapiens, UniProt P14867+P18505+P18507). Nature of the experiment: Agonist activity at recombinant human GABAA receptor alpha1beta1gamma2L expressed in Xenopus laevis oocytes incubated for 30 secs by electrophysiological method. It is filed as cell-based.
The target of experiment [10] is T2, Neuronal acetylcholine receptor; alpha4/beta2 (Homo sapiens, UniProt P17787+P43681). Nature of the experiment: Positive allosteric modulation of human (alpha4beta2)2beta2 nAChR expressed in HEK cells preincubated for 15 mins followed by dihydro-beta-erythroidine hydrobromide addition by fluorometric analysis. It is filed as cell-based.
T2 sequence (P17787 whole entry): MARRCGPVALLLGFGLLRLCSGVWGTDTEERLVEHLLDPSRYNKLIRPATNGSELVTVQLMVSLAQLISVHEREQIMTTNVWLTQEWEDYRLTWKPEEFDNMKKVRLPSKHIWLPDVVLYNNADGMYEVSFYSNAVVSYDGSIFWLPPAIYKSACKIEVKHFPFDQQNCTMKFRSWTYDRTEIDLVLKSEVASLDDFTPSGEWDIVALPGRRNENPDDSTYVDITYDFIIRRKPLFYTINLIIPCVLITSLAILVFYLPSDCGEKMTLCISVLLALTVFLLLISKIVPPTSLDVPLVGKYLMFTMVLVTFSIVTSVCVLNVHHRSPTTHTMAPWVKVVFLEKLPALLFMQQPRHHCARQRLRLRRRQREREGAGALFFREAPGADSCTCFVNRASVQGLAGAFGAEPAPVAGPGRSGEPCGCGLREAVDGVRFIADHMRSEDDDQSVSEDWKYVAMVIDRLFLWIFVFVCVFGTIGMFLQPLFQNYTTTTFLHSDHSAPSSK
T2 sequence (P43681 whole entry): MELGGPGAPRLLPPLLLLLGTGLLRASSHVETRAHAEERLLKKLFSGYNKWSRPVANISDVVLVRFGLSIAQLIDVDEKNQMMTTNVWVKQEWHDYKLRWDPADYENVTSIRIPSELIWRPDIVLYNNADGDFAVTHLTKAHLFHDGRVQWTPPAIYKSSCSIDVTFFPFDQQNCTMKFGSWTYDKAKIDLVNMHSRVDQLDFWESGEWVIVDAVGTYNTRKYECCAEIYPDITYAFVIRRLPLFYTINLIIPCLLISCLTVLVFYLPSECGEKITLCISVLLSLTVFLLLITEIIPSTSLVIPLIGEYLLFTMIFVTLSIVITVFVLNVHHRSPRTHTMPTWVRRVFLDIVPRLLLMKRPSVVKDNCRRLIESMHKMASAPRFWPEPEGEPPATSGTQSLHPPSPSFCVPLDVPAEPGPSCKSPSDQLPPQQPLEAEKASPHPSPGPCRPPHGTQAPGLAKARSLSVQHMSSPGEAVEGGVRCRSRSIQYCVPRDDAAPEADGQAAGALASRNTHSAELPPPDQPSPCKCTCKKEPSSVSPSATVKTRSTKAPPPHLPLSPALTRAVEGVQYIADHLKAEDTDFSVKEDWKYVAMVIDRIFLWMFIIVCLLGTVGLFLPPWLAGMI
Experiment [11] concerns the target Nicotinic acetylcholine receptor alpha2/beta4 (Homo sapiens, UniProt P02708+P30926). Kind of experiment: Positive allosteric modulation of human alpha2beta4 nAChR expressed in HEK cells preincubated for 15 mins followed by dihydro-beta-erythroidine hydrobromide addition by fluorometric analysis. It is filed as cell-based.
Experiment [12] is described as follows: Positive allosteric modulation of human (alpha4beta2)2alpha4 nAChR expressed in HEK cells preincubated for 15 mins followed by dihydro-beta-erythroidine hydrobromide addition by fluorometric analysis. The class given is cell-based. The note with it: HEK293.
Experiment [13] deals with Nicotinic acetylcholine receptor alpha2/beta2 (Homo sapiens, UniProt P02708+P17787). Nature of the experiment: Positive allosteric modulation of human alpha2beta2 nAChR expressed in HEK cells preincubated for 15 mins followed by dihydro-beta-erythroidine hydrobromide addition by fluorometric analysis. The class given is cell-based.
Sequence of Nicotinic acetylcholine receptor alpha2/beta2 (P02708 whole entry): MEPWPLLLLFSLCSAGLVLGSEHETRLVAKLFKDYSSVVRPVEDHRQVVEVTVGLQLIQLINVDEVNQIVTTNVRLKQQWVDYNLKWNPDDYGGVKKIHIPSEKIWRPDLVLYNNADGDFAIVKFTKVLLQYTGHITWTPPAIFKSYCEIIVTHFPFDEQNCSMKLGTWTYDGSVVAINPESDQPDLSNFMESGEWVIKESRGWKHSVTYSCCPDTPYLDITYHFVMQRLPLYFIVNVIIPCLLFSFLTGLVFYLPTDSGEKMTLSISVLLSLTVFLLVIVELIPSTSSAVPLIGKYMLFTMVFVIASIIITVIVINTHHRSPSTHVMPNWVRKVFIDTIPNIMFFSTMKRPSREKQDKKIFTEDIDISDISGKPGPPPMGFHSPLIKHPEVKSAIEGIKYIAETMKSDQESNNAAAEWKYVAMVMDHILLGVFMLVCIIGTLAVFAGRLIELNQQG
Sequence of Nicotinic acetylcholine receptor alpha2/beta2 (P17787 whole entry): as the sequence (P17787 whole entry) above
The target in experiment [14] is Neuronal acetylcholine receptor; alpha4/beta4 (Homo sapiens, UniProt P30926+P43681). Kind of experiment: Positive allosteric modulation of human alpha4beta4 nAChR expressed in HEK cells preincubated for 15 mins followed by dihydro-beta-erythroidine hydrobromide addition by fluorometric analysis. It is filed as cell-based.
The target of experiment [15] is T2, Neuronal acetylcholine receptor; alpha4/beta2. Kind of experiment: Positive allosteric modulation of human alpha4beta2 nAChR expressed in HEK cells preincubated for 15 mins followed by dihydro-beta-erythroidine hydrobromide addition by fluorometric analysis. It is filed as cell-based.
Experiment [16] addresses GABA-A receptor; alpha-5/beta-3/gamma-2 (Homo sapiens) (UniProt P18507+P28472+P31644). Kind of experiment: Positive allosteric modulation of recombinant human GABAA receptor alpha5beta3gamma2 expressed in Xenopus laevis oocytes assessed as potentiation of GABA induced chloride currents relative to GABA. It is filed as cell-based.
Experiment [17] deals with GABA-A receptor; alpha-2/beta-3/gamma-2 (Homo sapiens, UniProt P18507+P28472+P47869). Nature of the experiment: Displacement of [3H]Ro15-1788 from human GABAA receptor alpha2beta3gamma2 expressed in LTK cells […]. The class given is cell-based. (Loss of bound radioactivity is the signal in a displacement assay; it reports binding, not function.)

Experiment [18] addresses GABA-A receptor; alpha-1/beta-3/gamma-2 (Homo sapiens) (UniProt P14867+P18507+P28472). Nature of the experiment: Positive allosteric modulation of recombinant human GABAA receptor alpha1beta3gamma2 expressed in Xenopus oocytes assessed as potentiation of GABA induced chloride current response relative to GABA. The class given is cell-based.
Experiment [19] addresses GABA-A receptor; alpha-6/beta-3/gamma-2 (Homo sapiens) (UniProt P18507+P28472+Q16445). Kind of experiment: Positive allosteric modulation of recombinant human GABAA receptor alpha6beta3gamma2 expressed in Xenopus oocytes assessed as potentiation of GABA induced chloride currents relative to GABA. The class given is cell-based.
Experiment [20] deals with GABA-A receptor; alpha-2/beta-3/gamma-2 (Homo sapiens) (UniProt P18507+P28472+P47869). Kind of experiment: Positive allosteric modulation of recombinant human GABAA receptor alpha2beta3gamma2 expressed in Xenopus oocytes assessed as potentiation of GABA induced chloride currents relative to GABA. The class given is cell-based.
In experiment [21] the target is GABA-A receptor; alpha-5/beta-3/gamma-2 (Homo sapiens, UniProt P18507+P28472+P31644). Nature of the experiment: Displacement of [3H]Ro15-1788 from human GABAA receptor alpha5beta3gamma2 expressed in LTK cells […]. It is filed as cell-based.
For experiment [22], the target named is T3, GABA A receptor alpha-4/beta-3/gamma-2 (Homo sapiens, UniProt P18507+P28472+P48169). Nature of the experiment: Positive allosteric modulation of recombinant human GABAA receptor alpha4beta3gamma2 expressed in Xenopus laevis oocytes assessed as potentiation of GABA induced chloride currents relative to GABA. It is filed as cell-based.
Experiment [23] deals with GABA-A receptor; alpha-3/beta-3/gamma-2 (Homo sapiens) (UniProt P18507+P28472+P34903). Kind of experiment: Positive allosteric modulation of recombinant human GABAA receptor alpha3beta3gamma2 expressed in Xenopus laevis oocytes assessed as potentiation of GABA induced chloride currents relative to GABA. The class given is cell-based.
The target in experiment [24] is T3, GABA A receptor alpha-4/beta-3/gamma-2. Kind of experiment: Displacement of [3H][…] from human GABAA receptor alpha4beta3gamma2 expressed in LTK cells […]. The class given is cell-based.
The target in experiment [25] is Gamma-aminobutyric acid receptor subunit alpha-1 (Rattus norvegicus) (UniProt P62813). Nature of the experiment: Agonist activity at GABAA receptor in Sprague-Dawley rat forebrain membranes assessed as enhancement of [3H]muscimol binding at 1 to 100 uM after 2 hrs by radiometric analysis relative to control. The note with it: Membrane.
Experiment [26] concerns the target Gamma-aminobutyric acid receptor subunit alpha-1 (Rattus norvegicus, UniProt P62813). Kind of experiment: Agonist activity at GABAA receptor in Sprague-Dawley rat forebrain membranes assessed as enhancement of [3H]muscimol binding after 2 hrs by radiometric analysis. Details: species or system Membrane.

pEC50, pKi: −log10 of the molar value. Bounds are passed on as bounds.

For `COc1ccc(C(=O)/C=C/c2cc(OC)ccc2O)cc1`, the results for the pEC50 in [1], in [3] and in [4] were 4.75, 5.12 and 5.09, respectively. Moreover, the fold change (FC) was 6.2 in [2], 19.6 in experiment [5] and 13.6 in experiment [6].
For the molecule `Oc1c(Br)cc(Br)cc1-c1cc(Br)cc(Br)c1O` [BROMOPHENE], the pEC50 (commonly −log10 of the EC50, conventionally taken in molar units) in experiment [7] was 6.14; in experiment [8] it was 5.97; in [9], 6.49.
Turning to `O=C(N[C@@H]1CCCNC1)c1cc2cccc(Br)c2s1`, the pEC50 in experiment [10] was 6.56; in experiment [11], 6.54; in experiment [12], 6.78; in experiment [13], 6.18; in [14] it was 6.63; in experiment [15], 6.35.
On to `COc1ccc(-n2nc3c4cc(Cl)ccc4[nH]cc-3c2=O)cc1`, for which the fold change (FC) in experiment [16] amounted to 2; in [18], 10; in [19], 20; in [20], 8; in experiment [22], 2; in [23] it was 5. Besides, the pKi (as a rule, −log10 of the Ki, conventionally taken in molar units) in experiment [17] is less than 5.00; in experiment [21], 9.52; in [24], less than 5.00.
Regarding `CCCCNC(=O)c1cc(-c2ccc(F)cc2F)ccc1O`, in experiment [25], the maximal response (Emax) (as a rule, the size of the effect at its maximum, as opposed to the concentration needed) stood at 56%. The pEC50 in [26] was 4.82.
